Values quoted from earlier work, collected in patent publication US11559519B2, “Tizanidine therapy system” (MEDRx Co., Ltd., priority 2018, dated 2023).

Conditions: multiple dose, placebo-controlled clinical studies

Question: With `Clc1ccc2nsnc2c1NC1=NCCN1` [tizanidine] as the molecule, how does the “sedation rated as severe” value read?
Answer: 10%

Question: What about the “patients who reported sedation as an adverse event” value (patients receiving any dose) of the same molecule?
Answer: 48%
